From patent publication US10363234B2, “Antihypertensive agent” (WAKUNAGA PHARMACEUTICAL CO., LTD., priority 2015, dated 2019)

Assays:
Format in all cases: in vivo, rat
[1] = test system: Spontaneous Hypertensive Rats (SHR); experiment: Single oral administration of S1PC to spontaneous hypertensive rats, systolic blood pressure (Test Example 1); conditions: SHR/Izm rats, single oral dose 6.5 mg/kg, 1.5 to 6 hours after the administration, t-test
Protocol: Effect of Administering S-1-Propenylcysteine (S1PC) to Spontaneous Hypertensive Rats (SHR)
(§1) One group of eight 8-week-old male SHR/Izm rats purchased from Japan SLC, Inc. (Hamamatsu-shi) was preliminarily bred for two weeks. During preliminary breeding, handling was performed on the rats, and the rats were bred in a constant environment (temperature; 23±1° C., humidity; 50±10%, light-dark cycle; 12 hours (light period; 7 to 19 o'clock)) and freely fed with an artificial diet (CE-2; CLEA Japan, Inc.) and sterilized tap water.
(§2) The administration was performed by forced oral administration using a disposable feeding needle and the fluid volume to be administered was 10 mL per 1 kg of SHR weight. As a sample to be administered, about 15 mg of S-1-propenylcysteine produced in Production Example 2 (a cis- and trans-mixture) was precisely weighed and dissolved in 15 mL of purified water. […]
(§3) Before the start of administration (0 hour) and after the administration (1.5, 3, 6, and 24 hours), the systolic blood pressure at the base of each tail was measured without anesthesia using a non-preheating, non-invasive blood pressure monitor (MK-2000ST, Muromachi Kikai Co., Ltd.). Note that the measurement was performed five times per individual, the upper and lower values were eliminated, and an average of the remaining measured values was defined as a systolic blood pressure value of the individual. […]

[2] = test system: Spontaneous Hypertensive Rats (SHR); experiment: Single oral administration of S1PC and SAC to spontaneous hypertensive rats, systolic blood pressure (Test Example 2); conditions: SHR/Izm rats, single oral dose 1 mg/kg, S1PC effect 3 hours after the administration, Bonferroni test
Protocol: Effect of Administering S-1-Propenylcysteine (S1PC) and S-Allylcysteine (SAC) to Spontaneous Hypertensive Rats (SHR)
as §1, with “three” for “two”
(§4) The administration was performed by forced oral administration using a disposable feeding needle and the fluid volume to be administered was 10 mL per 1 kg of SHR weight. […]
as §3, with “(3,” for “(1.5, 3,”

[3] = test system: Spontaneous Hypertensive Rats (SHR); experiment: Repeated oral administration of S1PC to spontaneous hypertensive rats for 10 weeks, systolic blood pressure (Test Example 3); conditions: SHR/Izm rats, 6.5 mg/kg oral once a day for 10 weeks, two-way ANOVA
Protocol: Effect of Repeated Oral Administration of S-1-Propenylcysteine (S1PC) on Spontaneous Hypertensive Rats (SHR)
as §1, with “ten” for “eight”
as §4
Before the repeated oral administration (0 hour), and every other week after the administration up to 10 weeks, the systolic blood pressure at the base of each tail was measured without anesthesia using a non-preheating, non-invasive blood pressure monitor (MK-2000ST, Muromachi Kikai Co., Ltd.). Note that the measurement was performed five times per individual, the upper and lower values were eliminated, and an average of the remaining measured values was defined as a systolic blood pressure value of the individual. […]

Normotensive Rats (WKY) = experiment: Single oral administration of S1PC to normotensive rats, systolic blood pressure (Test Example 4); conditions: WKY/Izm rats, single oral dose 6.5 mg/kg, measured 3, 6 and 24 hours
Protocol: Effect of Administering S-1-Propenylcysteine (S1PC) to Normotensive Rats (WKY)
as §1, with “four” for “eight”, “WKY/Izm” for “SHR/Izm”
as §2, with “WKY” for “SHR”
as §3, with “(3,” for “(1.5, 3,”

CC=CSCC(N)C(=O)O (centres unmarked) [S-1-propenylcysteine]
antihypertensive effect (systolic blood pressure) as compared with the control group [1]: significant antihypertensive effect | antihypertensive effect (systolic blood pressure) as compared with the control group [2]: significant antihypertensive effect | antihypertensive effect (systolic blood pressure) as compared with the control group [3]: significant antihypertensive effect | antihypertensive effect (systolic blood pressure) on normotensive rats (Normotensive Rats (WKY)): no significant antihypertensive effect

C=CCSC[C@H](N)C(=O)O [SAC, S-allylcysteine, reference compound]
antihypertensive effect (systolic blood pressure) as compared with the control group [2]: no significant antihypertensive effect
